{"source": "patent US20150038333A1", "about": "“PLANT PROTECTIVE COMPOSITION CONTAINING ALPHA-HYDROXY ACIDS” (HELMHOLTZ ZENTRUM MÜNCHEN DEUTSCHES FORSCHUNGSZENT -RUN FÜR …, priority 2011, published 2015)", "key": {"[1]": {"target": "T1, UGT76B1 (Arabidopsis thaliana, UniProt Q9C768)", "T1 construct": "The UGT76B1 open reading frame was amplified with the same primers as used for the construction of the overexpression lines; made in house", "T1 sequence (Q9C768 1-447)": "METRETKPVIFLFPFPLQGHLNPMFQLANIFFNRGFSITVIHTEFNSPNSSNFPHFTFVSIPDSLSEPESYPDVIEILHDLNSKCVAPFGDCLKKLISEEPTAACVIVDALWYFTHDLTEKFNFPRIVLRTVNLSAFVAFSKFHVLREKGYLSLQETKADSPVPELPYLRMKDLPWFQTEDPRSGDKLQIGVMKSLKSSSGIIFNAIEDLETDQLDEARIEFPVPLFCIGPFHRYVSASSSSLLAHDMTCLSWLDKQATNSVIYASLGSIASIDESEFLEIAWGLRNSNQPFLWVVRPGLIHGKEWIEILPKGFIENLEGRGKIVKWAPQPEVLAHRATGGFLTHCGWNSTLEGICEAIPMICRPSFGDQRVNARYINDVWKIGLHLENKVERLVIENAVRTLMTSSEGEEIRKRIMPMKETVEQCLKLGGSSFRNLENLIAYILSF", "test": "In vitro glucosyltransferase activity assay of recombinant UGT76B1", "assay_type": "biochemical", "settings": "0.5 mM aglycone, 5 mM UDP-glucose, 1 hour at 30° C., analyzed by mass spectrometry", "excerpt": "A glutathione-S-transferase (GST)-UGT761 expression plasmid was constructed using pDEST15 (Invitrogen, Germany). The UGT76B1 open reading frame was amplified with the same primers as used for the construction of the overexpression lines. The recombinant protein was affinity-purified using a glutathione-coupled sepharose beads according to the manufacturer's instructions (GE Healthcare, Germany), concentrated by membrane filtration (Amicon Ultra-4; Millipore, Germany) and supplemented with 20% glycerol for storage at −20° C. (Messner et al., 2003). To analyze the UGT enzyme activity assay mixtures contained 0.1 M Tris-HCl (pH 7.5), 5 mM UDP-glucose, 0.5 mM aglycone and about 1 μg fusion protein in a final volume of 50 μL. After incubation for 1 hour at 30° C. the reaction was stopped by addition of 200 μL methanol and cleared by centrifugation. Reactions were diluted 1:50 in 70% methanol (except for valic acid, which was used without dilution) and analyzed on a API4000 mass spectrometer using direct injection into the electrospray source at a flow rate of […]. 150 Scans were accumulated for each measurement in dual ion monitoring mode, which was adjusted to monitor ions at nominal m/z ratios of the corresponding expected substrate and product peaks with a mass range of ±5 Da."}, "[2]": {"system": "defence marker genes PR1, PDF1.2 and VSP2", "test": "Defense marker gene expression in Col-0 plants after spraying with α-hydroxy-acid (RTqPCR)", "assay_type": "in vivo, Arabidopsis", "settings": "for expression of defense marker genes (PR1 and PDF1.2): 4-week-old Col-0 plants, 24 h after treatment, 1 mM in water, preliminary, two biological replicates", "experimental": "Rosette leaves of the indicated age were collected. Total RNA was isolated using the RNeasy Plant Mini Kit (Qiagen, Germany). RNA integrity and amount was analyzed by gel electrophoresis and by spectrophotometry. One microgram of total RNA was reverse transcribed using a SuperScript II reverse transcription-PCR kit (Invitrogen; Germany) according to the manufacturer's instructions. Gene-specific primer pairs were designed using the Primer Express 3.0 software. […] Real time quantification was performed using a 7500 real time PCR system (Applied Biosystems, Germany). Individual PCR reaction mixtures contained 4 μL of diluted cDNA, 10 μL of Sybr Green Mastermix (Thermo Scientific, Germany) and […] of each primer in a final volume of 20 μL. In all experiments, three biological replicates of each sample and two technical (PCR) replicates were performed. The amount of target gene was normalized over the abundance of the constitutive UBQ5 (At3g62250) and S16 (At5g18380, At2g09990) genes. The stability of the reference genes was tested and normalization was performed using GeNorm (Vandesompele et al., 2002). For RTqPCR of infected material, plants were infected as described below. Three biological replicates were analyzed; each consisted of six individually infected leaves. Plant material was harvested before infection and mock treatments (time point 0) and at the indicated time points after treatment. Each experiment was repeated with similar results.\nFor isoleucic acid treatment, 4-week-old plants were sprayed with 0.5 or 1 mM isoleucic acid (diluted in water) or only water for mock treatments. Plants were covered with a plexiglass lid until the surface of the leaves became dry. The fifth to eighth true leaves of each plant were harvested 24 hours after treatment. Four leaves from three independent plants were pooled for each replicate and analyzed by real-time PCR."}, "[3]": {"system": "P. syringae pv. tomato DC3000 (avrRpm1) (Ps-avir)", "test": "Bacterial growth in Arabidopsis leaves of wild-type plants sprayed with ILA before infection", "assay_type": "in vivo, Pseudomonas syringae", "experimental": "FIG. 14: Direct effect of exogenously applied ILA on pathogen defence. Bacterial growth in Arabidopsis leaves of wild-type plants sprayed with water (blank) or 1 mM ILA (dotted) 24 h or 72 h before infection. Plants were inoculated with 5*10^5 cfu ml^−1 of Ps-avir and bacteria (cfu cm^−2) were quantified 0 and 3 days after inoculation. The graphs represent the means and standard deviations of three replicates.\nBacterial strains used in this study include Pseudomonas syringae pv. tomato DC3000 (Ps), P. syringae pv. tomato DC3000 (avrRpm1) (Ps-avir). Bacteria were grown overnight at 28° C. in King's B medium with appropriate antibiotics and diluted to 5*10^5 cfu mL^−1 with 10 mM MgCl2 for plant inoculation. Whole leaves of 5- to 6-week-old plants were infiltrated using a 1-mL syringe without a needle. Control plants were infiltrated with 10 mM MgCl2. Leaf discs from control treated and infected plants were harvested from inoculated leaves at 0, 1 and 3 d after infiltration. Bacterial growth was assessed as described previously (Katagiri et al., 2002). For each time point, three samples were made by pooling six leaf discs from three different treated plants."}, "[4]": {"system": "pathogen responsive genes PR1 and PR10", "test": "Induction of defence genes in barley leaves (semiquantitative PCR)", "assay_type": "in vivo, Hordeum vulgare", "settings": "2-week-old plants sprayed with 1 mM ILA, 48 h after treatment", "experimental": "Total RNA was isolated using the RNeasy Plant Mini Kit (Qiagen, Germany). RNA integrity and amount was analyzed by gel electrophoresis and by spectrophotometry. One microgram of total RNA was reverse transcribed using a QuantiTect reverse transcription-PCR kit (Qiagen; Germany) according to the manufacturer's instructions. The following gene-specific primer pairs were kindly provided by Corina Vlot: EF1A_Hv_f (5′-[…]-3′) and EF1A_Hv_r (5′-[…]-3′) for the barley reference gene EF1A; PR1_Hv_f (5′-[…]-3′) and PR1_Hv_r (5′-[…]-3′) for barley PR1; Hv, PR10_Hv_f (5′-[…]-3′) and PR10_Hv_r (5′-[…]-3′) for barley PR10. PCR fragments were amplified using the indicated number of PCR cycles (FIG. 17) and separated on a 2% agarose gel containing ethidium bromide.\nFor ILA treatment in barley, 2-week-old plants were sprayed with either 1 mM ILA or 0.25 mg/ml BTH (benzothiadiazole/BION™), dissolved in water with 0.01% tween. For mock treatment, plants were sprayed only with water containing 0.01% tween. Leaves were harvested 48 hours after treatment and analyzed by semiquantitative PCR."}, "[5]": {"settings": "leaves of four-week-old Col-0 plants, 24 h after spraying isoleucic acid solution"}}, "data": [{"smiles": "CCC(O)(CC)C(=O)O", "note": "[2-ethyl-2-hydroxybutyric acid]", "values": [{"measurement": "glucosylation by recombinant UGT76B1", "setting": "[1]", "result": "no activity"}]}, {"smiles": "CCCCCCC(O)C(=O)O", "note": "(stereo not drawn) [2-hydroxy-octanoic acid]", "values": [{"measurement": "expression of defense marker genes (PR1 and PDF1.2)", "setting": "[2]", "result": "can also induce"}]}, {"smiles": "CCC(C)C(O)C(=O)O", "note": "(stereo not drawn) [isoleucic acid, 2-hydroxy-3-methylpentanoic acid]", "values": [{"measurement": "persistence of increased resistance after ILA spraying", "setting": "[3]; 1 mM ILA sprayed 24 h or 72 h before Ps-avir infection", "result": "1 to 3", "unit": "days"}, {"measurement": "bacterial growth compared with mock treatment", "setting": "[3]; 1 mM ILA sprayed 24 h or 72 h before infection with 5*10^5 cfu ml^-1 Ps-avir, bacteria quantified 3 days after inoculation", "result": "about four- to fivefold less bacterial growth"}, {"measurement": "glucosylation by recombinant UGT76B1", "setting": "[1]", "result": "glucosylated"}, {"measurement": "PR1 transcript level in barley", "setting": "[4]", "result": "induces"}, {"measurement": "PR10 transcript level in barley", "setting": "[4]", "result": "induces"}, {"measurement": "PDF1.2 expression relative to mock (water) treatment", "setting": "[2]; [5]", "result": "tendency for induction"}, {"measurement": "VSP2 expression relative to mock (water) treatment", "setting": "[2]; [5]", "result": "only marginally suppressed"}, {"measurement": "PR1 expression relative to mock (water) treatment", "setting": "[2]; leaves of four-week-old Col-0 plants, 24 h after spraying isoleucic acid solution (0.5 or 1 mM)", "result": "more than tenfold induced"}]}, {"smiles": "CC(C)[C@H](O)C(=O)O", "note": "[valic acid, (S)-(+)-2-hydroxy-3-methylbutyric acid]", "values": [{"measurement": "glucosylation by recombinant UGT76B1", "setting": "[1]", "result": "able to glucosylate"}, {"measurement": "expression of defense marker genes (PR1 and PDF1.2)", "setting": "[2]", "result": "can also induce"}]}]}
